PubChem BioAssay AID248 (DTP/NCI, 2004)
“And” between values parts separate entries of the source, which are not always exact repeats. Equal values may be shown once. Toxic doses and inconclusive results are not listed.

System: L1210 leukemia ip in BDF1 mice, survival T/C
Test: NCI In Vivo Anticancer Drug Screen. Data for tumor model L1210 Leukemia (intraperitoneal) in B6D2F1 (BDF1) mice
Conditions: endpoint: mean survival time, higher = longer survival
How it was run: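 Each compound was tested against a transplantable tumor grown in mice. The endpoint was survival, with treated animals benchmarked against vehicle controls as a simple ratio.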

[1] = dose: 100.0 mg/kg/injection, schedule: Q01DX009 (ip), vehicle: Klucel (hydroxypropylcellulose) (HPC)
[2] = dose: 200.0 mg/kg/injection, schedule: Q01DX009 (ip), vehicle: Klucel (hydroxypropylcellulose) (HPC)
[3] = dose: 400.0 mg/kg/injection, schedule: Q01DX009 (ip), vehicle: Klucel (hydroxypropylcellulose) (HPC)
[4] = dose: 50.0 mg/kg/injection, schedule: Q01DX009 (ip), vehicle: saline with Tween-80
[5] = dose: 100.0 mg/kg/injection, schedule: Q01DX001 (ip), vehicle: saline
[6] = dose: 100.0 mg/kg/injection, schedule: Q01DX009 (ip), vehicle: saline with Tween-80
[7] = dose: 100.0 mg/kg/injection, schedule: Q04DX003 (ip), vehicle: saline
[8] = dose: 200.0 mg/kg/injection, schedule: Q01DX001 (ip), vehicle: saline
[9] = dose: 400.0 mg/kg/injection, schedule: Q01DX001 (ip), vehicle: saline
[10] = dose: 100.0 mg/kg/injection, schedule: Q04DX003 (ip), vehicle: saline with Tween-80
[11] = dose: 200.0 mg/kg/injection, schedule: Q04DX003 (ip), vehicle: saline with Tween-80
[12] = dose: 400.0 mg/kg/injection, schedule: Q04DX003 (ip), vehicle: saline with Tween-80
[13] = dose: 200.0 mg/kg/injection, schedule: Q01DX009 (ip), vehicle: saline with Tween-80

O=C(CCCl)N1CCN(C(=O)CCCl)CC1
T/C [1]: 106 % of control
T/C (dose: 100.0 mg/kg/injection, schedule: Q01DX009 (ip), vehicle: saline): 103 % of control
T/C (dose: 100.0 mg/kg/injection, schedule: Q04DX003 (ip), vehicle: Klucel (hydroxypropylcellulose) (HPC)): 100 % of control
T/C (dose: 117.32 mg/kg/injection, schedule: Q01DX009 (ip), vehicle: saline): 119 % of control
T/C (dose: 148.0 mg/kg/injection, schedule: Q01DX Z (ip), vehicle: methylcellulose (MC)): 100 % of control
T/C (dose: 176.0 mg/kg/injection, schedule: Q01DX009 (ip), vehicle: saline): 100 % of control
T/C [2]: 108 % of control
T/C (dose: 200.0 mg/kg/injection, schedule: Q01DX009 (ip), vehicle: saline): 119 % of control
T/C (dose: 200.0 mg/kg/injection, schedule: Q04DX003 (ip), vehicle: Klucel (hydroxypropylcellulose) (HPC)): 99 % of control
T/C (dose: 222.0 mg/kg/injection, schedule: Q01DX Z (ip), vehicle: methylcellulose (MC)): 104 % of control
T/C (dose: 264.0 mg/kg/injection, schedule: Q01DX009 (ip), vehicle: saline): 116 % of control
T/C (dose: 333.0 mg/kg/injection, schedule: Q01DX Z (ip), vehicle: methylcellulose (MC)): 119 % of control
T/C [3]: 122 % of control
T/C (dose: 400.0 mg/kg/injection, schedule: Q01DX009 (ip), vehicle: saline): 161 % of control and 167 % of control
T/C (dose: 400.0 mg/kg/injection, schedule: Q04DX003 (ip), vehicle: Klucel (hydroxypropylcellulose) (HPC)): 121 % of control
T/C (dose: 500.0 mg/kg/injection, schedule: Q01DX Z (ip), vehicle: methylcellulose (MC)): 97 % of control
T/C (dose: 800.0 mg/kg/injection, schedule: Q01DX009 (ip), vehicle: Klucel (hydroxypropylcellulose) (HPC)): 155 % of control

CCOC(=O)c1[nH]c(=S)[nH]c1C(=O)OCC
T/C (dose: 5.0 mg/kg/injection, schedule: Q01DX001 (ip), vehicle: saline): 102 % of control
T/C (dose: 10.0 mg/kg/injection, schedule: Q01DX001 (ip), vehicle: saline): 102 % of control
T/C (dose: 20.0 mg/kg/injection, schedule: Q01DX001 (ip), vehicle: saline): 104 % of control
T/C (dose: 40.0 mg/kg/injection, schedule: Q01DX001 (ip), vehicle: saline): 94 % of control
T/C (dose: 80.0 mg/kg/injection, schedule: Q01DX001 (ip), vehicle: saline): 95 % of control

CCc1c(C)nnn1-c1ccccc1
T/C (dose: 75.0 mg/kg/injection, schedule: Q01DX001 (ip), vehicle: saline): 94 % of control
T/C (dose: 150.0 mg/kg/injection, schedule: Q01DX001 (ip), vehicle: saline): 91 % of control

CC(C)(C)c1cc([N+](=O)[O-])cc(C(C)(C)C)c1O
T/C [4]: 102 % of control
T/C [5]: 96 % of control
T/C [6]: 98 % of control
T/C [7]: 101 % of control
T/C [8]: 94 % of control
T/C (dose: 200.0 mg/kg/injection, schedule: Q04DX003 (ip), vehicle: saline): 93 % of control
T/C [9]: 93 % of control

CCCCCCCCCCCCCCCCCOC(=O)CCCCCCCCCCCCC
T/C [1]: 91 % of control
T/C [10]: 90 % of control
T/C [2]: 96 % of control
T/C [11]: 88 % of control
T/C [3]: 98 % of control
T/C [12]: 92 % of control

C=CCn1c(-c2ccc(N(C)C)cc2)nc2c(Cl)ncnc21
T/C (dose: 5.0 mg/kg/injection, schedule: Q01DX009 (ip), vehicle: steriod suspending solution): 97 % of control
T/C (dose: 9.0 mg/kg/injection, schedule: Q01DX009 (ip), vehicle: steriod suspending solution): 98 % of control
T/C (dose: 14.0 mg/kg/injection, schedule: Q01DX009 (ip), vehicle: steriod suspending solution): 102 % of control
T/C (dose: 24.0 mg/kg/injection, schedule: Q01DX009 (ip), vehicle: steriod suspending solution): 95 % of control

CC(=O)C1(Cl)CCC(C(C)(C)C)CC1 (centres undefined)
T/C (dose: 100.0 mg/kg/injection, schedule: Q04DX002 (ip), vehicle: saline with Tween-80): 111 % of control
T/C (dose: 200.0 mg/kg/injection, schedule: Q04DX002 (ip), vehicle: saline with Tween-80): 103 % of control
T/C (dose: 400.0 mg/kg/injection, schedule: Q04DX002 (ip), vehicle: saline with Tween-80): 103 % of control

O=Cc1cc(O)ccc1[N+](=O)[O-]
T/C [6]: 98 % of control
T/C [10]: 103 % of control
T/C [13]: 88 % of control
T/C [11]: 104 % of control
T/C [12]: 109 % of control

Cc1ccc(/C=C/c2ccccn2)cc1
T/C (dose: 50.0 mg/kg/injection, schedule: Q01DX001 (ip), vehicle: carboxymethylcellulose (CMC)): 100 % of control
T/C (dose: 50.0 mg/kg/injection, schedule: Q04DX003 (ip), vehicle: carboxymethylcellulose (CMC)): 105 % of control
T/C (dose: 100.0 mg/kg/injection, schedule: Q01DX001 (ip), vehicle: carboxymethylcellulose (CMC)): 100 % of control
T/C (dose: 100.0 mg/kg/injection, schedule: Q01DX009 (ip), vehicle: carboxymethylcellulose (CMC)): 100 % of control and 90 % of control
T/C (dose: 100.0 mg/kg/injection, schedule: Q04DX002 (ip), vehicle: carboxymethylcellulose (CMC)): 98 % of control and 107 % of control
T/C (dose: 100.0 mg/kg/injection, schedule: Q04DX003 (ip), vehicle: carboxymethylcellulose (CMC)): 110 % of control
T/C (dose: 200.0 mg/kg/injection, schedule: Q01DX001 (ip), vehicle: carboxymethylcellulose (CMC)): 100 % of control
T/C (dose: 200.0 mg/kg/injection, schedule: Q01DX009 (ip), vehicle: carboxymethylcellulose (CMC)): 93 % of control and 108 % of control
T/C (dose: 200.0 mg/kg/injection, schedule: Q04DX002 (ip), vehicle: carboxymethylcellulose (CMC)): 97 % of control and 113 % of control
T/C (dose: 200.0 mg/kg/injection, schedule: Q04DX003 (ip), vehicle: carboxymethylcellulose (CMC)): 96 % of control
T/C (dose: 400.0 mg/kg/injection, schedule: Q04DX002 (ip), vehicle: carboxymethylcellulose (CMC)): 98 % of control and 90 % of control

CCCC(C(=O)OCCN(CC)CC)(c1ccccc1)c1ccccc1
T/C (dose: 6.25 mg/kg/injection, schedule: Q01DX009 (ip), vehicle: saline): 106 % of control
T/C (dose: 12.5 mg/kg/injection, schedule: Q01DX009 (ip), vehicle: saline): 92 % of control
T/C (dose: 12.5 mg/kg/injection, schedule: Q04DX003 (ip), vehicle: saline): 102 % of control
T/C (dose: 25.0 mg/kg/injection, schedule: Q01DX009 (ip), vehicle: saline): 93 % of control
T/C (dose: 25.0 mg/kg/injection, schedule: Q04DX003 (ip), vehicle: saline): 116 % of control
T/C (dose: 50.0 mg/kg/injection, schedule: Q01DX009 (ip), vehicle: saline): 93 % of control
T/C (dose: 50.0 mg/kg/injection, schedule: Q04DX003 (ip), vehicle: saline): 100 % of control
T/C [7]: 102 % of control

O=C(O)c1ccc(-c2ccc(O)cc2)cc1
T/C [1]: 98 % of control
T/C [2]: 101 % of control
T/C [3]: 102 % of control

CN(C)P(=O)(N(C)C)N(C)C
T/C [5]: 101 % of control
T/C [8]: 98 % of control
T/C [9]: 102 % of control
T/C (dose: 1:6400.0 dilution, schedule: Q01DX009 (ip), vehicle: saline): 107 % of control

Cc1cnc(NS(=O)(=O)c2ccc(N)cc2)nc1-c1ccccc1O
T/C (dose: 100.0 mg/kg/injection, schedule: Q04DX002 (ip), vehicle: Klucel (hydroxypropylcellulose) (HPC)): 98 % of control
T/C (dose: 200.0 mg/kg/injection, schedule: Q04DX002 (ip), vehicle: Klucel (hydroxypropylcellulose) (HPC)): 98 % of control
T/C (dose: 400.0 mg/kg/injection, schedule: Q04DX002 (ip), vehicle: Klucel (hydroxypropylcellulose) (HPC)): 91 % of control

CCOc1ccc(NC(=O)Nc2ccccc2C(F)(F)F)cc1
T/C [1]: 89 % of control
T/C [2]: 96 % of control
T/C [3]: 100 % of control

CCNC(=O)NC(=O)C(C)(C)Oc1ccc(Cl)cc1
T/C [4]: 103 % of control
T/C [6]: 92 % of control
T/C [13]: 96 % of control
